These results are taken from ChEMBL document CHEMBL4673207, “Recent advances in the discovery of potent and selective HDAC6 inhibitors” (Eur J Med Chem, 2018).

SMILES strings stand for the structures. Some results are limits rather than exact numbers.

The species named for test [1] is Homo sapiens. Briefly: Selectivity ratio of IC50 for human HDAC4 to IC50 for human HDAC6.
Test [2] is filed under the species Homo sapiens. Briefly: Selectivity ratio of IC50 for human HDAC1 to IC50 for human HDAC6.
Test [3] concerns the target T1, Histone deacetylase 2 (Homo sapiens, UniProt Q92769). Put plainly: Inhibition of human HDAC2 using p53 fluorogenic peptide (379 to 382 residues) RHKKAc as substrate by fluorescence-based assay.
Test [4] addresses T2, Protein deacetylase HDAC6 (Homo sapiens, UniProt Q9UBN7).
T2 sequence (Q9UBN7 whole entry): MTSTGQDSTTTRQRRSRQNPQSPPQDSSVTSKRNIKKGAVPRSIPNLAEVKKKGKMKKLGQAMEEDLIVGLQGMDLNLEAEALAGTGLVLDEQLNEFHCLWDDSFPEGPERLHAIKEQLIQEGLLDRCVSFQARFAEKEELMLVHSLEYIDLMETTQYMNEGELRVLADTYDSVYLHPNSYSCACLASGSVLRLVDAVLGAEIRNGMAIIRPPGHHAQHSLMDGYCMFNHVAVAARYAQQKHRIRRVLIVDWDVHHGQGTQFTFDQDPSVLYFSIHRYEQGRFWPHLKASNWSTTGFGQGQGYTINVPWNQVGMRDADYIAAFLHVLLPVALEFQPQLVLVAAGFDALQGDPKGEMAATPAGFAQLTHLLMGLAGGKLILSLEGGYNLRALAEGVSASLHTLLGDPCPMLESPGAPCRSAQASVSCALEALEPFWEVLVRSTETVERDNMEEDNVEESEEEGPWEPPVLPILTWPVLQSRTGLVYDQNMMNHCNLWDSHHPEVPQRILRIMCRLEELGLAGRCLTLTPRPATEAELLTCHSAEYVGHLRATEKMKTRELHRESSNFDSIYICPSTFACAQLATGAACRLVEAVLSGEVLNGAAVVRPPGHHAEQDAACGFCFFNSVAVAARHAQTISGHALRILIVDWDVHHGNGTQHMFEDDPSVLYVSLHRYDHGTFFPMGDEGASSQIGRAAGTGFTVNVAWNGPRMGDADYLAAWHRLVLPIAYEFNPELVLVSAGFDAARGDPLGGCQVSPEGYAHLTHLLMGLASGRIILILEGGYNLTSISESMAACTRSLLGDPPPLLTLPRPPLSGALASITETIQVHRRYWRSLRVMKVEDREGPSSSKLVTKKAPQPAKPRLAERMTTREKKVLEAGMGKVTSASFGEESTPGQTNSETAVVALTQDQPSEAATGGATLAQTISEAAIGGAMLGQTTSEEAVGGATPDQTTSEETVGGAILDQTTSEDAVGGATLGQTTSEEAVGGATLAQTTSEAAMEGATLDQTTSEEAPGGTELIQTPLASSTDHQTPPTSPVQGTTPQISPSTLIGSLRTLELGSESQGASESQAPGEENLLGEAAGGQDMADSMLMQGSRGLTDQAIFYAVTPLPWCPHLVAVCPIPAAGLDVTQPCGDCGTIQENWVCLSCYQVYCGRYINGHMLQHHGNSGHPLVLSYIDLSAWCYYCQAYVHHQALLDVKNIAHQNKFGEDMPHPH
Put plainly: Inhibition of human HDAC6 using p53 fluorogenic peptide (379 to 382 residues) RHKKAc as substrate by fluorescence-based assay.

Another test relates to HCT-116. Put plainly: Antiproliferative activity against human HCT116 cells incubated for 72 hrs by MTT assay. Format: functional, cell-based. Particulars: HCT-116, 72 h. (Tetrazolium dyes change colour on reduction, which living cells bring about.)
The subject of a further test is PC-3. Briefly: Antiproliferative activity against human PC3 cells incubated for 72 hrs by MTT assay. The format is functional, cell-based. Particulars: PC-3, 72 h.
In test [5] the target is T3, Histone deacetylase 1 (Homo sapiens, UniProt Q13547). Briefly: Inhibition of human HDAC1 using p53 fluorogenic peptide (379 to 382 residues) RHKKAc as substrate by fluorescence-based assay.
T3 sequence (Q13547 whole entry, the tested form may be a part): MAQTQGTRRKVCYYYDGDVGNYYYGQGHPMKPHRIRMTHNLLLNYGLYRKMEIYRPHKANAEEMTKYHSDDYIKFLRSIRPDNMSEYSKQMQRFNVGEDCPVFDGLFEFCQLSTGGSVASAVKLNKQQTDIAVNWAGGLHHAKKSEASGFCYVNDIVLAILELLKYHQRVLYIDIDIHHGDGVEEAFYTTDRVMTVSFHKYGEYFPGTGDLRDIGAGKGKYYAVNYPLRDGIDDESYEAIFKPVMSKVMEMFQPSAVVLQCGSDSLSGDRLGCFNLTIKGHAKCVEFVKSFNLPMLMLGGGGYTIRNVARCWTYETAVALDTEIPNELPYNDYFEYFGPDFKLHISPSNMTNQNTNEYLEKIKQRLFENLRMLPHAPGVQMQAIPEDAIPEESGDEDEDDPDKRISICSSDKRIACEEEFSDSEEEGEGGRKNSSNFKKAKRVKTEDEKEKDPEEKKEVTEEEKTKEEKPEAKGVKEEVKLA
Test [6] deals with T4, Histone deacetylase 5 (Homo sapiens, UniProt Q9UQL6). Briefly: Inhibition of human HDAC5 using Fluor deLys substrate by fluorescence method.
T4 sequence (Q9UQL6 whole entry): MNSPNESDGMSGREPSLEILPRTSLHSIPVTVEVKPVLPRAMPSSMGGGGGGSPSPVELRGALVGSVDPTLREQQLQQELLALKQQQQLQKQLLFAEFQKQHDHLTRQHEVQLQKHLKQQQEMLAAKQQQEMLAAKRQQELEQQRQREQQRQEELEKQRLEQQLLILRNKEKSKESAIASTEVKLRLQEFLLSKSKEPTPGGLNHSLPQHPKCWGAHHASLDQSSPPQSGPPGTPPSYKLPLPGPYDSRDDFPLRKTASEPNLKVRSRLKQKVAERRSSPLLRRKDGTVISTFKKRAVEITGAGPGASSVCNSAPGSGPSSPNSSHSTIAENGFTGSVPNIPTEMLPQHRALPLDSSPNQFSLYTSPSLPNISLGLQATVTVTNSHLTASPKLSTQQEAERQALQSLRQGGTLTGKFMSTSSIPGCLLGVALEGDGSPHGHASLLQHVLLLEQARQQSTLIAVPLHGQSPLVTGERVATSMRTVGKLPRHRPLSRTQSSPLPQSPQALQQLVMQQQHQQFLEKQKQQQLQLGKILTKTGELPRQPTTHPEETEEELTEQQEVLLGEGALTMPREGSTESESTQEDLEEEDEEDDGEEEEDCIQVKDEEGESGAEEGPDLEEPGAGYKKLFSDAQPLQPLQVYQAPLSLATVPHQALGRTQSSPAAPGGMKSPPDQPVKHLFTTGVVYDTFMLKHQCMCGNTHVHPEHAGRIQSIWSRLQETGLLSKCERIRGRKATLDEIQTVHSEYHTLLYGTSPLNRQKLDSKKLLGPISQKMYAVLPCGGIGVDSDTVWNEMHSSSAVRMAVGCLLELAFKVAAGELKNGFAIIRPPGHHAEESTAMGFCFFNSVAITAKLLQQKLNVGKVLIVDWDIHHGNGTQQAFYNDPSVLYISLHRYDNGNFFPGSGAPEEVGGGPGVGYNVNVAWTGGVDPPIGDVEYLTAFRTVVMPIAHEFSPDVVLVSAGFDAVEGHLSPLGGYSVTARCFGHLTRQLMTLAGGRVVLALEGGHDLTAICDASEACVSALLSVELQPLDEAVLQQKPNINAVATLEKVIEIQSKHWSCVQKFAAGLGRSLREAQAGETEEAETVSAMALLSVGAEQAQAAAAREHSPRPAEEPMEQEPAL
The target of test [7] is T5, Histone deacetylase 4 (Homo sapiens, UniProt P56524). Briefly: Inhibition of human HDAC4 expressed in sf9 cells using Fluor deLys substrate by fluorescence method.
T5 sequence (P56524 whole entry): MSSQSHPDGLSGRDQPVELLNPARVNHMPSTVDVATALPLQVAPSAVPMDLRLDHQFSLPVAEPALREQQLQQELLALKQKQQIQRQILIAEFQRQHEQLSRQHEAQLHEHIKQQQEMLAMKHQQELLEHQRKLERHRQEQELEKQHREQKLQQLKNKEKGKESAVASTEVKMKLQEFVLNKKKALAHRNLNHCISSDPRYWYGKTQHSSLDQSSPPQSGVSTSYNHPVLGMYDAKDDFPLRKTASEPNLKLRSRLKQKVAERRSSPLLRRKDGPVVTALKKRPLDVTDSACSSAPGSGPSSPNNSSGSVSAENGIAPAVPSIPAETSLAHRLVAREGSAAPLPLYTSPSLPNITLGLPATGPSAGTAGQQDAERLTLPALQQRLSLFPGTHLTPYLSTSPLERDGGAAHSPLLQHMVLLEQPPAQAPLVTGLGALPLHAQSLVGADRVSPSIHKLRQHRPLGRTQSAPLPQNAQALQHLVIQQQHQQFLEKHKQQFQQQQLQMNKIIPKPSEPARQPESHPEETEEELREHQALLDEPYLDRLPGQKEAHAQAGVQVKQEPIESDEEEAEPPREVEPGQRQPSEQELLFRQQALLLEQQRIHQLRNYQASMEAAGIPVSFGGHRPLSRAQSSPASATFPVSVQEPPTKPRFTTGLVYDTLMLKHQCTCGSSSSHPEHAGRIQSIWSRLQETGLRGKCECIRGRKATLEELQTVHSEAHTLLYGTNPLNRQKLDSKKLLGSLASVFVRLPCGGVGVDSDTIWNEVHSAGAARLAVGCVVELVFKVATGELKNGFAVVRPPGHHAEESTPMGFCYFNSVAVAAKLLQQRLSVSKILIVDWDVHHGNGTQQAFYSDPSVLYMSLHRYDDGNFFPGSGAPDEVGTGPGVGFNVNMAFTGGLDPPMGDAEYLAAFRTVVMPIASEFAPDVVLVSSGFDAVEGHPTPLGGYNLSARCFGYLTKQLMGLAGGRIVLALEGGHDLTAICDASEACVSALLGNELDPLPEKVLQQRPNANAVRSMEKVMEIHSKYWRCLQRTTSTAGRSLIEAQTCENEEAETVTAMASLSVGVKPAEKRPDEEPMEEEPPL
Test [8] concerns the target T6, Polyamine deacetylase HDAC10 (Homo sapiens, UniProt Q969S8).
T6 sequence (Q969S8 whole entry): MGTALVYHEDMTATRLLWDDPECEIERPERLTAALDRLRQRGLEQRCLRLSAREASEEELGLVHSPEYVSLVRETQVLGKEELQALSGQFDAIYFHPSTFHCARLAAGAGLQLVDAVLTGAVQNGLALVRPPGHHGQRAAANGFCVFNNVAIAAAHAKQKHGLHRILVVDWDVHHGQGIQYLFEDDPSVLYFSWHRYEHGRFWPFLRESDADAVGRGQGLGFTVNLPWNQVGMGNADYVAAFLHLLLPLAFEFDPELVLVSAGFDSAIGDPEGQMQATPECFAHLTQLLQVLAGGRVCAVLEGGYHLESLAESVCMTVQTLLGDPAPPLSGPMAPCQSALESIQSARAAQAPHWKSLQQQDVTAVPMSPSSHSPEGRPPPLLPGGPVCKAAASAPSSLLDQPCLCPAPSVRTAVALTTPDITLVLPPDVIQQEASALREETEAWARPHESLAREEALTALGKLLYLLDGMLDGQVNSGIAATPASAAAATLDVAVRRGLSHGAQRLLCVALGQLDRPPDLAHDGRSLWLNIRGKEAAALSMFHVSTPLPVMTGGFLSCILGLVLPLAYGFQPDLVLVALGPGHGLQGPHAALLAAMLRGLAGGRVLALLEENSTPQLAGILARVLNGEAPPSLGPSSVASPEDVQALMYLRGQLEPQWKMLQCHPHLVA
Put plainly: Inhibition of N-terminal Flag tagged- human HDAC10 (2 to 631 amino acids) expressed in baculovirus infected Sf9 cells using Fluor deLys substrate by fluorescence method.

The next test relates to MM1.S. Briefly: Cytotoxicity against human MM1.S cells incubated for 48 hrs by MTT assay. Format: functional, cell-based.
The target in test [9] is NAD-dependent protein deacetylase sirtuin-1 (Homo sapiens, UniProt Q96EB6). Put plainly: Inhibition of human sirtuin 1 using fluorogenic HDAC substrate incubated for 20 mins by fluorimetry.
Chain of NAD-dependent protein deacetylase sirtuin-1 (Q96EB6 whole entry): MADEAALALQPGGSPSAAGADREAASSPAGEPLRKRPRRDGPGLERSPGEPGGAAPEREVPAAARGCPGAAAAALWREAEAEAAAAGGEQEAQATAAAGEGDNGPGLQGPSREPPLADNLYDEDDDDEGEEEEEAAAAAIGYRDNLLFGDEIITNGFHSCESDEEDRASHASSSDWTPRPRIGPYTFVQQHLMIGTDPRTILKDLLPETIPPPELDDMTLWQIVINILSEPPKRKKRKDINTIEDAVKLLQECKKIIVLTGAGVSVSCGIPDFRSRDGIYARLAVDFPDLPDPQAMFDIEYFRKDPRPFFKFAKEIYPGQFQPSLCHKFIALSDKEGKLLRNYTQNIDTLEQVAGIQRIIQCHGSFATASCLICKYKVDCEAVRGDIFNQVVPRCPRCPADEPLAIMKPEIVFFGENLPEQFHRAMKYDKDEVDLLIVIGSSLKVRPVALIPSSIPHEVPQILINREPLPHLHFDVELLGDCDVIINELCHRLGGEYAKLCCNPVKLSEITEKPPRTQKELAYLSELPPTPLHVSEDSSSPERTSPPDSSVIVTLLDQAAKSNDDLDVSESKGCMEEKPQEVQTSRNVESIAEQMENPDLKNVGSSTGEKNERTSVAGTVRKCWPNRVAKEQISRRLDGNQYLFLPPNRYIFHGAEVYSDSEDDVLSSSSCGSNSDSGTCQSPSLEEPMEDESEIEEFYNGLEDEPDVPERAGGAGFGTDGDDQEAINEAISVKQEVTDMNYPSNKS
Test [10] addresses NAD-dependent protein deacetylase sirtuin-2 (Homo sapiens, UniProt Q8IXJ6). Briefly: Inhibition of human sirtuin 2 using fluoro-lysine sirtuin 2 deacetylase as substrate incubated for 60 mins by fluorimetry.
The test system of a further test is OPM-2. Put plainly: Cytotoxicity against human OPM-2 cells incubated for 48 hrs by MTT assay. Format: functional, cell-based. Particulars: OPM-2, 48 h.
Test [11] concerns the target T3, Histone deacetylase 1. Briefly: Inhibition of human full-length recombinant HDAC1 using p53 fluorogenic peptide ([…] residues) (RHKK(Ac)) as substrate by fluorescence method.
Another test deals with Histone deacetylase. Put plainly: Inhibition of HDAC in human HeLa cell extracts using Fluor de lys as substrate incubated for 30 mins by fluorimetric analysis.
Test [12] concerns the target T2, Protein deacetylase HDAC6. Briefly: Inhibition of human full-length recombinant HDAC6 using fluorogenic peptide […] (RHKK(Ac)) as substrate by fluorescence method.
The target of test [13] is T1, Histone deacetylase 2. Put plainly: Inhibition of human full-length recombinant HDAC2 using fluorogenic peptide ([…] residues) (RHKK(Ac)) as substrate by fluorescence method.
For the next test, the target named is Histone deacetylase 11 (Homo sapiens, UniProt Q96DB2). Put plainly: Inhibition of human HDAC11 using fluorogenic HDAC substrate incubated for 30 mins by fluorescence method.
In test [14] the target is T1, Histone deacetylase 2. Put plainly: Inhibition of human HDAC2 using fluorogenic HDAC substrate incubated for 15 mins by fluorimetry.
Test [15] has as its target T6, Polyamine deacetylase HDAC10. Briefly: Inhibition of human HDAC10 using fluorogenic HDAC substrate incubated for 45 mins by fluorimetry.
Test [16] concerns the target T5, Histone deacetylase 4. Briefly: Inhibition of human HDAC4 using fluorogenic HDAC substrate incubated for 30 mins by fluorimetry.
A further test has as its target Histone deacetylase 8 (Homo sapiens, UniProt Q9BY41). Briefly: Inhibition of human HDAC8 using fluorogenic HDAC substrate incubated for 60 mins by fluorimetry.
Another test deals with Histone deacetylase 9 (Homo sapiens, UniProt Q9UKV0). Put plainly: Inhibition of human HDAC9 using fluorogenic HDAC substrate incubated for 30 mins by fluorimetry.
Chain of Histone deacetylase 9 (Q9UKV0 whole entry): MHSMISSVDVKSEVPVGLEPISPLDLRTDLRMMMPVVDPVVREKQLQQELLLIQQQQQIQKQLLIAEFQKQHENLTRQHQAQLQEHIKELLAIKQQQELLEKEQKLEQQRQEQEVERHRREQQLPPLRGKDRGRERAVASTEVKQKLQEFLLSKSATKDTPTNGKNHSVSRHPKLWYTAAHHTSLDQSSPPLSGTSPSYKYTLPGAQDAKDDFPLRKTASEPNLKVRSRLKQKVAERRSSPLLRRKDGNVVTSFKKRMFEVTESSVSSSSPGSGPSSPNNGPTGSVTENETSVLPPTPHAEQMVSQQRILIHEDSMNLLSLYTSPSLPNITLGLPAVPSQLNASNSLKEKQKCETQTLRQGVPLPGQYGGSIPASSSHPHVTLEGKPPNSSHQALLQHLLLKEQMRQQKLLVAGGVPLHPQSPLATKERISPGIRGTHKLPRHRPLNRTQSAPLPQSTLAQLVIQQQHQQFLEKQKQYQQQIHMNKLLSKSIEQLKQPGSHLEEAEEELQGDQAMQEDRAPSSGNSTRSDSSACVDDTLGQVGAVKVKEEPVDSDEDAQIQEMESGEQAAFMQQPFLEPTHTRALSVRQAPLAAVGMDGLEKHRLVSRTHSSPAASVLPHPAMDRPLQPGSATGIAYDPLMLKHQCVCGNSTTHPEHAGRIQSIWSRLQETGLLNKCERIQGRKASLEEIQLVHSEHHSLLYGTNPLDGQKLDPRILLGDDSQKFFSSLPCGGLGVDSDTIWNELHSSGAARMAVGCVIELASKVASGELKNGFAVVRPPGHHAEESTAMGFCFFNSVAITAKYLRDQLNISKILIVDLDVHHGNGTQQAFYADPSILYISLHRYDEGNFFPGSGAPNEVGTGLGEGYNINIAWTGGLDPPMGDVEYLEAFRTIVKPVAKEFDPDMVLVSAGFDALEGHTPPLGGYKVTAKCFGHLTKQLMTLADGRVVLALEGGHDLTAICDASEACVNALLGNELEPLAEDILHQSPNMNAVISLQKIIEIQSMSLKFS
Test [17] deals with T3, Histone deacetylase 1. Briefly: Inhibition of human HDAC1 using fluorogenic HDAC substrate incubated for 15 mins by fluorimetry.
The next test deals with Histone deacetylase 3 (Homo sapiens, UniProt O15379). Briefly: Inhibition of human HDAC3 using fluorogenic HDAC substrate incubated for 10 mins by spectrophotometric method.
The target in test [18] is T4, Histone deacetylase 5. Briefly: Inhibition of human HDAC5 using fluorogenic HDAC substrate incubated for 30 mins by fluorimetry.
Test [19] concerns the target T2, Protein deacetylase HDAC6. Put plainly: Inhibition of human HDAC6 using fluorogenic HDAC substrate incubated for 30 mins by fluorimetry.

T1 sequence (Q92769 whole entry, the tested form may be a part): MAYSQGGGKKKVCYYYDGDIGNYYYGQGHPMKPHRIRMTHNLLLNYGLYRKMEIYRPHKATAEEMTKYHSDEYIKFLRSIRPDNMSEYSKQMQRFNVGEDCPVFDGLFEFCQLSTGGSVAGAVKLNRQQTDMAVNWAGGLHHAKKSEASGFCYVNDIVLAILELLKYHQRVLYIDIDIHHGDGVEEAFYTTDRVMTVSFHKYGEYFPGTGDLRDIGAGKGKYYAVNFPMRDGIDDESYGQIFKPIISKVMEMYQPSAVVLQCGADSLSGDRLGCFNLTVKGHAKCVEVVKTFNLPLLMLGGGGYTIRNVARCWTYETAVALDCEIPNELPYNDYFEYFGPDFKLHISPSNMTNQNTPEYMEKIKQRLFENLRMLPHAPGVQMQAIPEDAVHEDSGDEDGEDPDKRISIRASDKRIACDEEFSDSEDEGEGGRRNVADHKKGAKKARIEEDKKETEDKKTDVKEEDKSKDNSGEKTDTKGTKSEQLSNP

For the compound `O=C(NO)c1ccc(Cn2c3c(c4ccccc42)CS(=O)(=O)CC3)cc1`, the Ratio IC50 in the test listed under Homo sapiens [1] was determined as 842; in the test listed under Homo sapiens [2] it was 5790.
For the compound `O=C(NO)c1ccc(Cn2c(=O)c(F)cn(C3CCCO3)c2=O)cc1` (stereo not drawn), the IC50 (as a rule, the concentration needed to halve the response being measured) against Histone deacetylase 2 [3] turned out to be 5.5 µM; in test [4] it was 0.0124 µM; with HCT-116, 8.08 µM; with PC-3, 11.4 µM; against Histone deacetylase 1 [5] it was 1.71 µM.
As for `CN(C)c1cccc2c(S(=O)(=O)NCCCCCC(=O)NO)cccc12`, the half-inhibitory concentration (IC50) against Histone deacetylase 5 [6] was 0.4 µM; against Histone deacetylase 4 [7], 0.33 µM; in test [8], 0.42 µM.
Regarding `O=C(CCCCCCNC(=O)c1cnc(N(c2ccccc2)c2ccccc2)nc1)NO` [RICOLINOSTAT], the IC50 with MM1.S is 2 µM; in [9], greater than 1 µM; in test [10] it was greater than 1 µM; with OPM-2, 2 µM.
Consider `O=C(/C=C/c1cccn(CCCc2ccc3ccccc3c2)c1=O)NO`, for which the IC50 at Histone deacetylase 1 [11] came to 0.0194 µM; against Histone deacetylase it was 0.07 µM; in [12], 0.00246 µM; on Histone deacetylase 2 [13], 0.128 µM.
For the compound `O=C(NO)c1ccc(Cn2c3c(c4ccccc42)S(=O)(=O)CC3)cc1`, the IC50 at Histone deacetylase 11 is greater than 5 µM; on Histone deacetylase 2 [14], greater than 5 µM; in [15], greater than 5 µM; against Histone deacetylase 4 [16], 1 µM; on Histone deacetylase 8, 1 µM; at Histone deacetylase 9 it was 0.1 µM. Besides, the IC50 is greater than 5 µM against Histone deacetylase 1 [17], greater than 5 µM at Histone deacetylase 3, 1 µM at Histone deacetylase 5 [18] and 0.0082 µM in [19].
